# Results taken from patent US20060035925A1, “SUBSTITUTED 4H-CHROMENES AND ANALOGS AS ACTIVATORS OF CASPASES AND INDUCERS OF APOPTOSIS AND THE USE THEREOF” (Cytovia, Inc., priority 1999, published 2006).
# Where two headings read alike, the source gives them in different places.
# Columns and labels:
# [1] = system: Human breast cancer cell line T-47D; assay: Caspase cascade activation assay (N-(Ac-DEVD)-N'-ethoxycarbonyl-R110 fluorogenic substrate) in T-47D cells; assay type: cell-based; conditions: for Caspase activity (Ratio) T-47D: 24 h incubation with compound, ratio of net RFU (T=3 h) of test compound to control
# Procedure: (§1) Human breast cancer cell lines T-47D and ZR-75-1 were grown according to media component mixtures designated by American Type Culture Collection +10% FCS (Invitrogen Corporation), in a 5% CO2-95% humidity incubator at 37° C. T-47D and ZR-75-1 cells were maintained at a cell density between 30 and 80% confluency at a cell density of 0.1 to 0.6×10^6 cells/ml. Cells were harvested at 600×g and resuspended at 0.65×10^6 cells/mL into appropriate media +10% FCS. An aliquot of 45 μl of cells was added to a well of a 96-well microtiter plate containing 5 μl of a 10% DMSO in RPMI-1640 media solution containing 0.16 to 10 μM of 2-amino-3-cyano-4-(3-bromo-4,5-dimethoxyphenyl)-4H-indolo[7,6-b]pyran (Example 42) or other test compound (0.016 to 1 μM final). An aliquot of 45 μl of cells was added to a well of a 96-well microtiter plate containing 5 μl of a 10% DMSO in RPMI-1640 media solution without test compound as the control sample. The samples were mixed by agitation and then incubated at 37° C. for 24 h in a 5% CO2-95% humidity incubator. After incubation, the samples were removed from the incubator and 50 μl of a solution containing 20 μM of N-(Ac-DEVD)-N′-ethoxycarbonyl-R110 (SEQ ID NO:1) fluorogenic substrate (Cytovia, Inc.; WO99/18856), 20% sucrose (Sigma), 20 mM DTT (Sigma), 200 mM NaCl (Sigma), 40 mM Na PIPES buffer pH 7.2 (Sigma), and 500 μg/ml lysolecithin (Calbiochem) was added. The samples were mixed by agitation and incubated at room temperature. Using a fluorescent plate reader (Model 1420 Wallac Instruments), an initial reading (T=0) was made approximately 1-2 min after addition of the substrate solution, employing excitation at 485 nm and emission at 530 nm, to determine the background fluorescence of the control sample. After the 3 h incubation, the samples were read for fluorescence as above (T=3 h).
# (§2) The Relative Fluorescence Unit values (RFU) were used to calculate the sample readings as follows: RFU(T=3h)−Control RFU(T=0)=Net RFU(T=3h)
# (§3) The activity of caspase cascade activation was determined by the ratio of the net RFU value for 2-amino-3-cyano-4-(3-bromo-4,5-dimethoxyphenyl)-4H-indolo[7,6-b]pyran or other test compound to that of control samples. The EC50 (nM) was determined by a sigmoidal dose-response calculation (Prism 2.0, GraphPad Software Inc.).
# [2] = system: Human breast cancer cell line ZR-75-1; assay: Caspase cascade activation assay (N-(Ac-DEVD)-N'-ethoxycarbonyl-R110 fluorogenic substrate) in ZR-75-1 cells; assay type: cell-based; conditions: for Caspase activity (Ratio) ZR-75-1: 24 h incubation with compound, ratio of net RFU (T=3 h) of test compound to control
# Procedure: as §1, §2, §3
# [3] = 24 h incubation, sigmoidal dose-response, read-out: Caspase potency EC50 (nM) T-47D
# [4] = ZR-75-1 cells, 24 h incubation, sigmoidal dose-response, read-out: Caspase potency EC50 (nM) ZR-75-1
# [5] = Homo sapiens, T47D, 24 h, 24 h incubation, sigmoidal dose-response, read-out: Caspase potency EC50 (nM) T-47D
# [6] = Homo sapiens, ZR-75-1, 24 h, ZR-75-1 cells, 24 h incubation, sigmoidal dose-response, read-out: Caspase potency EC50 (nM) ZR-75-1
# [7] = Homo sapiens, T47D, additional compounds, Table II, read-out: Caspase potency EC50 (nM) T-47D, Table II
# [8] = Homo sapiens, ZR-75-1, ZR-75-1 cells, additional compounds, Table II, read-out: Caspase potency EC50 (nM) ZR-75-1, Table II
# [9] = ZR-75-1 cells, additional compounds, Table II
Compound,Caspase activity (Ratio) T-47D [1],"EC50 [1, 3] [nM]",Caspase activity (Ratio) ZR-75-1 ([2]; ZR-75-1 cells),"EC50 [2, 4] [nM]","EC50 [1, 5] [nM]","EC50 [2, 6] [nM]","EC50 [1, 7] [nM]","Caspase activity (Ratio) T-47D, Table II ([1]; additional compounds, Table II)","EC50 [2, 8] [nM]","Caspase activity (Ratio) ZR-75-1, Table II [2, 9]"
"C1CCNCC1.C1CCNCC1.COc1cc(C2C(C#N)=C(N)Oc3c2ccc2[nH]ccc32)cc(Br)c1OP(=O)(O)O (stereo not drawn) [Example 69, 2-Amino-3-cyano-4-(3-bromo-4-phosphoric acid-dipiperidine salt-5-methoxyphenyl)-4H-indolo[4,5-b]pyran]",3.5,582,5.6,284,,,,,,
"COc1ccc2c(c1)OC(N)=C(C#N)C2c1cc(Cl)cc(Cl)c1 (stereo not drawn) [Example 2E, 2-Amino-3-cyano-7-methoxy-4-(3,5-dichlorophenyl)-4H-chromene]",4.1,,4.4,,39,29,,,,
"N#CC1=C(N)Oc2cc(O)ccc2C1c1cccc(C#N)c1 (stereo not drawn) [Example 2B, 2-Amino-3-cyano-7-hydroxy-4-(3-cyanophenyl)-4H-chromene]",1.2,,1.9,,> 10000,> 10000,,,,
"Cc1cncc(C2C(C#N)=C(N)Oc3cc(N)ccc32)c1 (stereo not drawn) [Example 34, 2,7-Diamino-3-cyano-4-(5-methyl-3-pyridyl)-4H-chromene]",4.7,,5.6,,107,43,,,,
"COc1cc(C2C(C#N)=C(N)Oc3cc(N4CCNCC4)ccc32)cc(Br)c1OC (stereo not drawn) [Example 66B, 2-Amino-3-cyano-7-piperazine-4-(3-bromo-4,5-dimethoxyphenyl)-4H-chromene]",5.7,2910,6.8,1470,,,,,,
"COc1cccc(C2C(C#N)=C(N)Oc3c2ccc(N)c3N)c1 (stereo not drawn) [Example 44, 3-Cyano-2,7,8-triamino-4-(3-methoxyphenyl)-4H-chromene]",7.0,,9.6,,256,138,,,,
"COc1cc(C2C(C#N)=C(N)Oc3cc(N4CCCC4)ccc32)cc(Br)c1OC (stereo not drawn) [Example 66A, 2-Amino-3-cyano-7-pyrrolidine-4-(3-bromo-4,5-dimethoxyphenyl)-4H-chromene]",3.7,110,6.0,79.4,,,,,,
"COc1cccc(C2C(C#N)=C(N)Oc3cc(OC)ccc32)c1 (stereo not drawn) [Example 4, 2-Amino-3-cyano-7-methoxy-4-(3-methoxyphenyl)-4H-chromene]",8.1,,5.6,,37,33,,,,
"2-Amino-3-ethoxycarboxyl-4-(3-bromo-4,5-dimethoxy-phenyl)-4H-indolo[4,5-b]pyran [Example 72]",1.2,> 1000,3.6,567,,,,,,
"Cc1cc2c(cc1Cl)C(c1ccccc1)C(C#N)=C(N)O2 (stereo not drawn) [Example 47, 2-Amino-6-chloro-3-cyano-7-methyl-4-phenyl-4H-chromene]",1.9,,7.3,,> 1000,552,,,,
"CC1(c2ccccc2)C(C#N)=C(N)Oc2ccccc21 (stereo not drawn) [Example 68B, 2-Amino-3-cyano-4-phenyl-4-methylchromene]",1.0,,1.8,,> 10000,> 10000,,,,
"N#CC1=C(N)Oc2cc(N)ccc2C1c1cccc(I)c1 (stereo not drawn) [2,7-Diamino-3-cyano-4-(3-iodophenyl)-4H-chromene]",,,,,,,33,4.8,18,5.1
"N#CC1=C(N)Oc2cc(N)ccc2C1c1cccc(C#N)c1 (stereo not drawn) [Example 20, 2,7-Diamino-3-cyano-4-(3-cyanophenyl)-4H-chromene]",4.0,,5.2,,120,58,,,,
"N#CC1=C(N)OC2C3=CC=NC3=CC=C2C1c1cc(Cl)cc(Cl)c1 (stereo not drawn) [Example 2F, 2-Amino-3-cyano-4-(3,5-dichlorophenyl)-4H-indolo[4,5-b]pyran]",4.7,,4.4,,44,26,,,,
"COc1ccc2c(c1)OC(N)=C(C#N)C2c1cncc(Br)c1 (stereo not drawn) [Example 33, 2-Amino-3-cyano-4-(5-bromo-3-pyridyl)-7-methoxy-4H-chromene]",7.0,,10.4,,7,7,,,,
"COc1cc(C2C(C#N)=C(N)Oc3c2ccc(N)c3N)cc(Br)c1OC (stereo not drawn) [Example 45, 3-Cyano-2,7,8-triamino-4-(3-bromo-4,5-dimethoxyphenyl)-4H-chromene]",6.0,,11.9,,41.8,35.4,,,,
"CCNc1ccc2c(c1)OC(N)=C(C#N)C2c1cc(OC)cc(OC)c1 (stereo not drawn) [Example 14, 2-Amino-3-cyano-7-ethylamino-4-(3,5-dimethoxyphenyl)-4H-chromene]",7,,7.7,,10,10,,,,
"CCNc1ccc2c(c1)OC(N)=C(C#N)C2c1cccc(Cl)c1 (stereo not drawn) [Example 8, 2-Amino-3-cyano-7-ethylamino-4-(3-chlorophenyl)-4H-chromene]",8.5,,10.1,,126,62,,,,
"COc1cc(C2C(C#N)=C(N)Oc3cc(N)ccc32)cc(OC)c1OC (stereo not drawn) [2,7-Diamino-3-cyano-4-(3,4,5-trimethoxyphenyl)-4H-chromene]",,,,,,,30,4.2,15,3.5
"COc1cc(C2C(C#N)=C(N)Oc3cc(-n4cccc4)ccc32)cc(Br)c1OC (stereo not drawn) [Example 67, 2-Amino-3-cyano-7-pyrrole-4-(3-bromo-4,5-dimethoxyphenyl)-4H-chromene]",9.2,349,6.9,148,,,,,,
"COc1cc(C2C(C#N)=C(N)Oc3c2ccc(N)c3C)cc(Br)c1OC (stereo not drawn) [Example 2H, 2-Amino-3-cyano-7-amino-8-methyl-4-(3-bromo-4,5-dimethoxyphenyl)-4H-chromene]",5.5,,3.9,,29,16,,,,
